# From patent US20250002475A1 (EPICS THERAPEUTICS, priority 2023, published 2025)
# Tests used:
# Kasumi-1 cells = assay: Kasumi-1 cellular viability assay (ATP-Lite, 72 h); format: cell-based; conditions: Homo sapiens, ATP-Lite luminescence, % viability relative to DMSO
# Method in brief: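 Kasumi-1 AML cells, 15000/well in RPMI-1640 with 10% FBS, were exposed to compound titrations (0.1% final DMSO) for 72 h at 37 °C, 5% CO2. ATP-Lite One Step luminescence gave % viability versus DMSO control, and IC50 came from the concentration-response.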
# Caov-3 cells = assay: Caov-3 cellular viability assay (ATP-Lite, 72 h); format: cell-based; conditions: Homo sapiens, ATP-Lite luminescence, % viability relative to DMSO
# Method in brief: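 10000 cells/well treated 72 h at 37 °C, 5% CO2, in RPMI-1640 with 10% FBS and 0.1% DMSO final. Viability by ATP-Lite One Step luminescence. Expressed as % of DMSO control, with IC50 from each compound's concentration-response curve.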
# [1] = biological target: T1, recombinant METTL3/METTL14 complex (Homo sapiens, UniProt Q86U44); assay: METTL3/14 Scintillation Proximity Assay (SPA), RNA methyltransferase activity; format: biochemical; conditions: 5.31 nM METTL3/14 complex, 250 nM RNA substrate, 1 μM 3H-SAM, 90 min; for compounds marked * best of the two separated forms
# T1 construct: purchased Active Motif 311970; host or cells: Sf9 cells
# T1 sequence (Q86U44 whole entry): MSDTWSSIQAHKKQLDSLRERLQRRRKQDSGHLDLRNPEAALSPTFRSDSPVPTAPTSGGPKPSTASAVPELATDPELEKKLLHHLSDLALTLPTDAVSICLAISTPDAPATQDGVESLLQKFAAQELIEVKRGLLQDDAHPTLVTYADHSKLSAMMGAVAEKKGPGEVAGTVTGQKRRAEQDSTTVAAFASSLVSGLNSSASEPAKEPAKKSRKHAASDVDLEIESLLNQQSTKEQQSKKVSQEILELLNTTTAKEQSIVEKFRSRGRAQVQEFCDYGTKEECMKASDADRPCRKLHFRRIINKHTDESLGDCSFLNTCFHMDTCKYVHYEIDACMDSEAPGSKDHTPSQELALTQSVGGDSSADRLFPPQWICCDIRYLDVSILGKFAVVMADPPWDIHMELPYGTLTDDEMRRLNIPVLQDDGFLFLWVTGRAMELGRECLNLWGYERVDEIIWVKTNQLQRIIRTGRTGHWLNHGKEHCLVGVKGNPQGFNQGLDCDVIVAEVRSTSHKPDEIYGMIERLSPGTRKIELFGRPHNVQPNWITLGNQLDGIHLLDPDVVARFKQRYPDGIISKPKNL
# T1 sequence (Q9HCE5 whole entry partner): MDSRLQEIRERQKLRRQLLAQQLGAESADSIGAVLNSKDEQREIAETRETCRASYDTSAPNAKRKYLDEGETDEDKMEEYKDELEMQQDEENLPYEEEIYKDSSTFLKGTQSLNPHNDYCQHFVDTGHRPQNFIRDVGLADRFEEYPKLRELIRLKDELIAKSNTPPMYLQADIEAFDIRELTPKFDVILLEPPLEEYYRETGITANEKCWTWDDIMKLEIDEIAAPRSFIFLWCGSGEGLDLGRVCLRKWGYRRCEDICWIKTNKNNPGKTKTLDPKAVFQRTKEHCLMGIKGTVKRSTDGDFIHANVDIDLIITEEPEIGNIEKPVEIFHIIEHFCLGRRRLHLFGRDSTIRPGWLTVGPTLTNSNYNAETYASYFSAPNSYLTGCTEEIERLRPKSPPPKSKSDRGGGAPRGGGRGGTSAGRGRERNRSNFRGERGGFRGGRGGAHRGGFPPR
SMILES,IC50 (Kasumi-1 cells) [nM],IC50 (Caov-3 cells) [nM],IC50 [1] [nM]
"COc1cc(-c2cn(Cc3ccc(N4CCC[C@@H](NCC5CCC5)C4)nn3)nn2)c2cn[nH]c2c1 [Compound 001, (R)-N-(cyclobutylmethyl)-1-(6-((4-(6-methoxy-1H-indazol-4-yl)-1H-1,2,3-triazol-1-yl)methyl)pyridazin-3-yl)piperidin-3-amine]",500 to 5000,≤ 500,≤ 50
"COc1cc(-c2cn(Cc3ccc(N4CCC[C@@H](NCC5CCC5)C4)cn3)nn2)c2cn[nH]c2c1 [Compound 042, (R)-N-(cyclobutylmethyl)-1-(6-((4-(6-methoxy-1H-indazol-4-yl)-1H-1,2,3-triazol-1-yl)methyl)pyridin-3-yl)piperidin-3-amine]",≤ 500,≤ 500,≤ 50
"C[C@@H]1CCN(c2cncc(-c3cn(C4(c5ccc(N6CCC[C@@H](NCC7CC7)C6)cn5)COC4)nn3)n2)C1 [Compound 244, (R)-N-(cyclopropylmethyl)-1-(6-(3-(4-(6-((R)-3-methylpyrrolidin-1-yl)pyrazin-2-yl)-1H-1,2,3-triazol-1-yl)oxetan-3-yl)pyridin-3-yl)piperidin-3-amine]",≤ 500,≤ 500,≤ 50
"COc1cncc(-c2cn(C3(c4ccc(N5CCC[C@@H](NCC6CC6)C5)cn4)COC3)nn2)c1 [Compound 249, (R)-N-(cyclopropylmethyl)-1-(6-(3-(4-(5-methoxypyridin-3-yl)-1H-1,2,3-triazol-1-yl)oxetan-3-yl)pyridin-3-yl)piperidin-3-amine]",≤ 500,≤ 500,≤ 50
"c1ncc(N2CCCC2)cc1-c1cn(C2(c3ccc(N4CCC[C@@H](NCC5CC5)C4)nn3)COC2)nn1 [Compound 212, (R)-N-(cyclopropylmethyl)-1-(6-(3-(4-(5-(pyrrolidin-1-yl)pyridin-3-yl)-1H-1,2,3-triazol-1-yl)oxetan-3-yl)pyridazin-3-yl)piperidin-3-amine]",≤ 500,≤ 500,≤ 50
"CC(C)Nc1cncc(-c2cn(C(C)n3ccc(N4CCC[C@@H](NCC5CCC5)C4)cc3=O)nn2)c1 (single isomer, unassigned) [Compound 158]",≤ 500,≤ 500,≤ 50
"c1ncc(C2CC2)cc1-c1cn(C2(c3ccc(N4CCC[C@@H](NCC5CC5)C4)cn3)CNC2)nn1 [Compound 349, (R)-N-(cyclopropylmethyl)-1-(6-(3-(4-(5-cyclopropylpyridin-3-yl)-1H-1,2,3-triazol-1-yl)azetidin-3-yl)pyridin-3-yl)piperidin-3-amine]",> 5000,500 to 5000,≤ 50
"COc1cncc(-c2cn(C(C)c3ccc(N4CCC[C@@H](NCC5CCC5)C4)cn3)cn2)c1 (stereo partly drawn) [Compound 276, (3R)—N-(cyclobutylmethyl)-1-(6-(1-(4-(5-methoxypyridin-3-yl)-1H-imidazol-1-yl)ethyl)pyridin-3-yl)piperidin-3-amine]",500 to 5000,≤ 500,≤ 50
"O=c1cc(N2CCC[C@@H](NCC3CC3)C2)ccn1Cn1cc(-c2cncc(N3CCCC3)n2)nn1 [Compound 201, (R)-4-(3-((cyclopropylmethyl)amino)piperidin-1-yl)-1-((4-(6-(pyrrolidin-1-yl)pyrazin-2-yl)-1H-1,2,3-triazol-1-yl)methyl)pyridin-2(1H)-one]",≤ 500,≤ 500,≤ 50
"CC(n1cc(-c2cncc(N3CCCC3)c2)nn1)n1ccc(N2CCC[C@@H](NCC3CCC3)C2)cc1=O (single isomer, unassigned) [Compound 160]",≤ 500,≤ 500,≤ 50
"COc1cc(-c2cn(C(C)n3ccc(N4CCC[C@@H](NCC5CCC5)C4)cc3=O)cn2)c2cn[nH]c2c1 (single isomer, unassigned) [Compound 188]",500 to 5000,500 to 5000,≤ 50
"c1cc(Cn2cc(-c3cncc(N4CCCC4)n3)nn2)ncc1N1CCC[C@@H](NCC2CCC2)C1 [Compound 282, (R)-N-(cyclobutylmethyl)-1-(6-((4-(6-(pyrrolidin-1-yl)pyrazin-2-yl)-1H-1,2,3-triazol-1-yl)methyl)pyridin-3-yl)piperidin-3-amine]",≤ 500,≤ 500,≤ 50
"c1cc(N2CCC[C@@H](NCC3CCC3)C2)ccc1Cn1cc(-c2cncc(N3CC4CC4C3)n2)nn1 (stereo partly drawn) [Compound 288, (3R)-1-(4-((4-(6-(3-azabicyclo[3.1.0]hexan-3-yl)pyrazin-2-yl)-1H-1,2,3-triazol-1-yl)methyl)phenyl)-N-(cyclobutylmethyl)piperidin-3-amine]",≤ 500,≤ 500,≤ 50
"CC(C(=O)Nc1cncc(N2CCCC2)n1)c1ccc(N2CCC[C@@H](NCC3CCC3)C2)nn1 (stereo partly drawn) [Compound 279, 2-(6-((R)-3-((cyclobutylmethyl)amino)piperidin-1-yl)pyridazin-3-yl)-N-(6-(pyrrolidin-1-yl)pyrazin-2-yl)propanamide]",500 to 5000,500 to 5000,≤ 50
"COc1cc(-c2cn(Cc3ccc(N4CCC[C@@H](NCC5CCC5)C4)cc3)nn2)c2cn[nH]c2c1 [Compound 123, (R)-N-(cyclobutylmethyl)-1-(4-((4-(6-methoxy-1H-indazol-4-yl)-1-1,2,3-triazol-1-yl)methyl)phenyl)piperidin-3-amine]",≤ 500,≤ 500,≤ 50
"CC1(CN[C@@H]2CCCN(c3ccc(C4(c5nnc(-c6cncc(N7CCCC7)n6)s5)COC4)nc3)C2)CC1 [Compound 367, (R)-N-((1-methylcyclopropyl)methyl)-1-(6-(3-(5-(6-(pyrrolidin-1-yl)pyrazin-2-yl)-1,3,4-thiadiazol-2-yl)oxetan-3-yl)pyridin-3-yl)piperdin-3-amine]",≤ 500,≤ 500,≤ 50
"CC(c1ccc(N2CCC[C@@H](NCC3CC3)C2)cn1)c1nnc(-c2cncc(N3CCCC3)n2)s1 (single isomer, unassigned) [Compound 360]",≤ 500,≤ 500,≤ 50
"CC(c1ccc(N2CCC[C@@H](NCC3(C)CC3)C2)cn1)c1nnc(-c2cncc(N3CCCC3)n2)s1 (single isomer, unassigned) [Compound 366]",≤ 500,≤ 500,≤ 50
"c1cc(C2(n3cc(-c4cncc(N5CCC6(CC6)C5)n4)nn3)COC2)ncc1N1CCC[C@@H](NCC2CC2)C1 [Compound 222, (R)-1-(6-(3-(4-(6-(5-azaspiro[2.4]heptan-5-yl)pyrazin-2-yl)-1H-1,2,3-triazol-1-yl)oxetan-3-yl)pyridin-3-yl)-N-(cyclopropylmethyl)piperidin-3-amine]",≤ 500,≤ 500,≤ 50
"COc1cc(-c2cn(Cc3ccc(N4CCC[C@@H](NC5CCC5)C4)nn3)nn2)c2cn[nH]c2c1 [Compound 030, (R)-N-cyclobutyl-1-(6-((4-(6-methoxy-1H-indazol-4-yl)-1H-1,2,3-triazol-1-yl)methyl)pyridazin-3-yl)piperidin-3-amine]",500 to 5000,500 to 5000,≤ 50
